In data set [1] the target is T1, Human FAAH (Homo sapiens, UniProt O00519).
T1 construct: made in house
T1 sequence (O00519 1-579): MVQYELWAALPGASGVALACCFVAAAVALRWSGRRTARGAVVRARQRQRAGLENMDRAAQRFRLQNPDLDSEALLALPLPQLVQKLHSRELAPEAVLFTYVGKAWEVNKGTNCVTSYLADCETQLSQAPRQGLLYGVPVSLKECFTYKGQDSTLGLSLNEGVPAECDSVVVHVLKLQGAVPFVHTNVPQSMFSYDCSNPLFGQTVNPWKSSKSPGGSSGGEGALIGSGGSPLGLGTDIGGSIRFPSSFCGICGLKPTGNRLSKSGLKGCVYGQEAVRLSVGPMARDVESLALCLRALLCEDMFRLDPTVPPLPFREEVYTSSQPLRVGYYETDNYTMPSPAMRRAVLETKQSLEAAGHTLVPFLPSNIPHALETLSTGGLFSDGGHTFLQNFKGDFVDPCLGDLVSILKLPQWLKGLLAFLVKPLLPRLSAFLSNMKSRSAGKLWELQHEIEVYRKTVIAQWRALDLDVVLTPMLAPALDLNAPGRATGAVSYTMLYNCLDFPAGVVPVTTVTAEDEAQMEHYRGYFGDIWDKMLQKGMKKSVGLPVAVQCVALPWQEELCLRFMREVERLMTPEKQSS
As to the kind of experiment: FAAH assay (glutamate dehydrogenase-coupled, oleamide substrate, absorbance at 340 nm). It counts as biochemical. The conditions noted are these: irreversible inhibition, 1-4 nM FAAH, pH 7.4, 30° C., 90 min; for kinact/KI: read-out: hFAAH kinact/Ki.

As for `Cc1ccc(NC(=O)N2CCC(=C(F)c3cccc(Oc4ccc(C(F)(F)F)cn4)c3)CC2)cn1` [Example 70, 4-(fluoro(3-(5-(trifluoromethyl)pyridin-2-yloxy)phenyl)methylene)-N-(6-methylpyridin-3-yl)piperidine-1-carboxamide], the melting point lay in the range of 158 to 160 °C. Further, in data set [1], the kinact/KI amounted to 4590 M⁻¹ s⁻¹.
On to “N-(pyridazin-3-yl)-4-(3-{[phenyl-2-yl]oxy}benzylidene)piperidine-1-carboxamide [Example 32]”, for which the “hFAAH kinact/Ki” value in data set [1] amounted to 973 M⁻¹ s⁻¹.
In the case of `O=C(Nc1ccc2nn[nH]c2c1)N1CCC(=Cc2cccc(Oc3ccc(C(F)(F)F)cn3)c2)CC1` [Example 14, N-1H-1,2,3-benzotriazol-6-yl-4-(3-{[5-(trifluoromethyl)pyridin-2-yl]oxy}benzylidene)piperidine-1-carboxamide], in data set [1], the kinact/KI amounted to 3190 M⁻¹ s⁻¹.
Consider `COc1cnc(NC(=O)N2CCC(=Cc3cccc(Oc4ccc(C(F)(F)F)cn4)c3)CC2)cn1` [Example 12, N-(5-methoxypyrazin-2-yl)-4-(3-{[5-(trifluoromethyl)pyridin-2-yl]oxy}benzylidene)piperidine-1-carboxamide], for which the kinact/KI in data set [1] turned out to be 10800 M⁻¹ s⁻¹.
On to `O=C(Nc1cccnc1)N1CCC(=Cc2cccc(Oc3ccc(OCC(F)(F)F)cc3)c2)CC1` [Example 99, N-pyridin-{3-yl-4-3-[4-(2,2,2-trifluoroethoxy)phenoxy]benzylidene}piperidine-1-carboxamide], for which the “hFAAH kinact/Ki” value in data set [1] was 1130 M⁻¹ s⁻¹.
`Cc1ccnc(Oc2cccc(C=C3CCN(C(=O)Nc4cccnc4)CC3)c2)c1` [Example 72, 4-{3-[(4-methylpyridin-2-yl)oxy]benzylidene}-N-pyridin-3-ylpiperidine-1-carboxamide]: in data set [1], the kinact/KI is 681 M⁻¹ s⁻¹.
`COc1cccc2cnc(Oc3cccc(C=C4CCN(C(=O)Nc5cccnn5)CC4)c3)nc12` [Example 101, 4-{3-[(8-methoxyquinazolin-2-yl)oxy]benzylidene}-N-pyridazin-3-ylpiperidine-1-carboxamide]: the kinact/KI in data set [1] was 209 M⁻¹ s⁻¹.
On to `O=C(Nc1cccnc1)N1CCC(=Cc2cccc(Oc3ccc(C(F)(F)F)cc3)c2)CC1` [Example 53], for which the “hFAAH kinact/Ki” value in data set [1] turned out to be 4520 M⁻¹ s⁻¹.
Consider `O=C(Nc1cccnc1)N1CCC(=Cc2cc(F)cc(Oc3ccc(C(F)(F)F)cn3)c2)CC1` [Example 65, 4-(3-fluoro-5-(5-(trifluoromethyl)pyridin-2-yloxy)benzylidene)-N-(pyridin-3-yl)piperidine-1-carboxamide], for which the kinact/KI in data set [1] was 6710 M⁻¹ s⁻¹.
Consider `O=C(Nc1cccc(CO)c1)N1CCC(=Cc2cccc(Oc3ccc(C(F)(F)F)cn3)c2)CC1` [Example 82, N-[3-(hydroxymethyl)phenyl]-4-(3-{[5-(trifluoromethyl)pyridin-2-yl]oxy}benzylidene)piperidine-1-carboxamide], for which, in data set [1], the kinact/KI is 979 M⁻¹ s⁻¹.
In the case of `Cn1ncc(NC(=O)N2CCC(=Cc3cccc(Oc4ccc(C(F)(F)F)cn4)c3)CC2)n1` [Example 78, N-(2-methyl-2H-1,2,3-triazol-4-yl)-4-(3-{[5-(trifluoromethyl)pyridin-2-yl]oxy}benzylidene)piperidine-1-carboxamide], the kinact/KI in data set [1] came to 2100 M⁻¹ s⁻¹.
With `O=C(Nc1cccnn1)N1CCC(=Cc2cccc(Oc3ccc(C4CC4)cn3)c2)CC1` [Example 39, 4-(3-(5-cyclopropylpyridin-2-yloxy)benzylidene)-N-(pyridazin-3-yl)piperidine-1-carboxamide], the kinact/KI in data set [1] was 18200 M⁻¹ s⁻¹.
Consider `Cc1cnc(Oc2cccc(C=C3CCN(C(=O)Nc4cccnn4)CC3)c2)nc1` [Example 109, 4-{3-[(5-methylpyrimidin-2-yl)oxy]benzylidene}-N-pyridazin-3-ylpiperidine-1-carboxamide], for which, in data set [1], the kinact/KI was 1240 M⁻¹ s⁻¹.
For the compound `C#CCCCOc1ccc(Oc2cccc(C=C3CCN(C(=O)Nc4cccnn4)CC3)c2)nc1` [Example 90, 4-(3-(5-(pent-4-ynyloxy)pyridin-2-yloxy)benzylidene)-N-(Pyridazin-3-yl)piperidine-1-carboxamide], the kinact/KI in data set [1] is 7600 M⁻¹ s⁻¹.
As to `Cc1noc(NC(=O)N2CCC(=Cc3cccc(Oc4ccc(Br)cn4)c3)CC2)c1C` [Example 35, 4-(3-(5-bromopyridin-2-yloxy)benzylidene)-N-(3,4-dimethylisoxazol-5-yl)piperidine-1-carboxamide], the kinact/KI in data set [1] was found to be 3670 M⁻¹ s⁻¹.
With `O=C(NC(=O)N1CCC(=Cc2cccc(Oc3ccc(C(F)(F)F)cn3)c2)CC1)c1ccccn1` [Example 15, N-{[4-(3-{[5-(trifluoromethyl)pyridin-2-yl]oxy}benzylidene)piperidin-1-yl]carbonyl}pyridine-2-carboxamide], in data set [1], the kinact/KI was 12900 M⁻¹ s⁻¹.
The same measure, in the same setting: next, `Cc1cc(C=C2CCN(C(=O)Nc3cccnc3)CC2)cc(Oc2ccc(C(F)(F)F)cn2)c1` [Example 61, 4-(3-methyl-5-(5-(trifluoromethyl)pyridin-2-yloxy)benzylidene)-N-(pyridin-3-yl)piperidine-1-carboxamide]: 2130 M⁻¹ s⁻¹; `O=C(Nc1cccnc1)N1CCC(=Cc2cccc(Oc3ccc(C(F)(F)F)cn3)c2)CC1` [Example 1, N-pyridin-3-yl-4-(3-{[5-(trifluoromethyl)pyridin-2-yl]oxy}benzylidene)piperidine-1-carboxamide]: 13300 M⁻¹ s⁻¹; `O=C(Nc1ccc(O)nc1)N1CCC(=Cc2cccc(Oc3ccc(C(F)(F)F)cn3)c2)CC1` [Example 142, N-(6-hydroxypyridin-3-yl)-4-(3-{[5-(trifluoromethyl)pyridin-2-yl]oxy}benzylidene)piperidine-1-carboxamide]: 246 M⁻¹ s⁻¹.
On to `Cc1nn(C)c(C)c1NC(=O)N1CCC(=Cc2cccc(Oc3ccc(C(F)(F)F)cn3)c2)CC1` [Example 134, 4-(3-{[5-(trifluoromethyl)pyridin-2-yl]oxy}benzylidene)-N-(1,3,5-trimethyl-1H-pyrazol-4-yl)piperidine-1-carboxamide], for which the kinact/KI in data set [1] was below 10 M⁻¹ s⁻¹.
On the same count and under the same terms, the same measure for `CCc1cnc(Oc2cccc(C=C3CCN(C(=O)Nc4cccnn4)CC3)c2)nc1` [Example 107, 4-{3-[(5-ethylpyrimidin-2-yl)oxy]benzylidene}-N-pyridazin-3-ylpiperidine-1-carboxamide]: 6220 M⁻¹ s⁻¹; for `O=C(Nc1cccnc1)N1CCC(=Cc2cccc(Oc3ccc(N4CCC4)cn3)c2)CC1` [Example 88, 4-(3-(5-(azetidin-1-yl)pyridin-2-yloxy)benzylidene)-N-(pyridin-3-yl)piperidine-1-carboxamide]: 3580 M⁻¹ s⁻¹.
The same measure, in the same setting: the same measure for `O=C(Nc1cccnn1)N1CCC(=Cc2cccc(Oc3ccc(Br)cn3)c2)CC1` [Example 34, 4-(3-(5-bromopyridin-2-yloxy)benzylidene)-N-(pyridazin-3-yl)piperidine-1-carboxamide]: 50900 M⁻¹ s⁻¹.
As for “4-(3-ethoxy-5-{[5-(trifluoromethyl)pyridin-2-yl]oxy}benzylidene)-N-pyridin-3-ylpiperidine-1-carboxamide trifluoroacetate [Example 74]”, in data set [1], the “hFAAH kinact/Ki” value was found to be 9870 M⁻¹ s⁻¹.
As for `O=C(Nc1cccnn1)N1CCC(=Cc2cccc(Oc3ncc(F)cn3)c2)CC1` [Example 108, 4-{3-[(5-fluoropyrimidin-2-yl)oxy]benzylidene}-N-pyridazin-3-ylpiperidine-1-carboxamide], the kinact/KI in data set [1] was 1120 M⁻¹ s⁻¹.

In general, melting point refers to the temperature, or range, at which the solid turns liquid.
